Some test systems named below: M14 melanoma; RPMI-8226 leukemia; DU-145 prostate; MOLT-4 leukemia; RXF 393 renal; OVCAR-3 ovarian; UACC-257 melanoma; HOP-62 NSCLC; SK-MEL-5 melanoma; SNB-19 CNS.
Assay in all cases: NCI tumour cell line growth inhibition, 48 h

13 compounds from PubChem BioAssay (NCI) can be followed below.

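Briefly, cells in 96-well plates were exposed to five compound concentrations for 48 h, and endpoints were estimated by linear interpolation. GI50 marks 50% less growth. At the TGI there is no net growth.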

`O=C(Nc1ccc(OC(F)(F)F)cc1)c1sccc1NCc1ccnc2ccccc12`: the GI50 in the assay with M14 melanoma was 2.74 µM; with RPMI-8226 leukemia, 3.32 µM; in the assay on DU-145 prostate, 3.65 µM; in the assay with MOLT-4 leukemia, 3.09 µM; in the assay on RXF 393 renal, 1.8 µM; in the assay on OVCAR-3 ovarian it was 4.89 µM. Besides, the GI50 is 3.62 µM in the assay on UACC-257 melanoma, 9.55 µM with HOP-62 NSCLC, 2.37 µM in the assay with SK-MEL-5 melanoma and 13 µM in the assay with SNB-19 CNS. For the same compound, the TGI in the assay on M14 melanoma was 30.6 µM; in the assay with RPMI-8226 leukemia it was 29.8 µM; with DU-145 prostate, greater than 100 µM; with MOLT-4 leukemia it was greater than 31.6 µM; with RXF 393 renal, 6.96 µM; in the assay on OVCAR-3 ovarian, greater than 100 µM. In addition, the TGI in the assay with UACC-257 melanoma is 52.5 µM; in the assay with HOP-62 NSCLC, greater than 100 µM; in the assay with SK-MEL-5 melanoma, 7.21 µM; with SNB-19 CNS, greater than 100 µM.
Consider `NS(=O)(=O)c1ccc(N2Cc3cc(Cl)ccc3OC3=C2C(=O)N(CC2CCCCC2)C3=O)cc1`, for which the GI50 with M14 melanoma was 1.25 µM; with RPMI-8226 leukemia, 0.227 µM; with DU-145 prostate, 1.06 µM; in the assay with MOLT-4 leukemia it was 0.195 µM; in the assay on RXF 393 renal, 0.495 µM; in the assay with OVCAR-3 ovarian it was 0.207 µM. Also, the GI50 in the assay with UACC-257 melanoma was 1.54 µM; with HOP-62 NSCLC it was 1.73 µM; with SK-MEL-5 melanoma, 1.77 µM; in the assay on SNB-19 CNS, 1.6 µM. Besides, the TGI worked out at 2.95 µM in the assay on M14 melanoma; 0.575 µM with RPMI-8226 leukemia; 2.25 µM in the assay with DU-145 prostate; 0.531 µM in the assay on MOLT-4 leukemia; 1.77 µM in the assay on RXF 393 renal; 0.429 µM in the assay on OVCAR-3 ovarian. The TGI in the assay with UACC-257 melanoma worked out at 3 µM; in the assay on HOP-62 NSCLC, 3.39 µM; in the assay with SK-MEL-5 melanoma, 3.25 µM; in the assay on SNB-19 CNS, 3.44 µM.
For `CSc1ccc(C2=Nn3c(nnc3-c3ccc(F)c(Cl)c3)SC2)cc1`, the GI50 was 6.73 µM in the assay with M14 melanoma; 18.6 µM in the assay with RPMI-8226 leukemia; 34.2 µM in the assay on DU-145 prostate; 7.2 µM in the assay with MOLT-4 leukemia; 4.46 µM in the assay with RXF 393 renal; 5.62 µM with OVCAR-3 ovarian. Moreover, the GI50 with UACC-257 melanoma is 67.6 µM; with HOP-62 NSCLC it was 5.84 µM; in the assay on SK-MEL-5 melanoma it was 11.9 µM; with SNB-19 CNS it was 10.7 µM. Moreover, the TGI is 28.4 µM in the assay on M14 melanoma; greater than 100 µM with RPMI-8226 leukemia; greater than 100 µM with DU-145 prostate; greater than 100 µM with MOLT-4 leukemia; 19.4 µM in the assay on RXF 393 renal; 21 µM in the assay on OVCAR-3 ovarian. Also, the TGI in the assay on UACC-257 melanoma is greater than 100 µM; with HOP-62 NSCLC it was 19.5 µM; in the assay with SK-MEL-5 melanoma, 52.7 µM; in the assay on SNB-19 CNS, 32.7 µM.
`CCOC(=O)c1c(NC(=O)c2ccc(C(C)C)cc2)sc2c(CN(C)C)c(O)ccc12`: the GI50 in the assay on M14 melanoma was 1.77 µM; in the assay with RPMI-8226 leukemia, 1.84 µM; with DU-145 prostate, 2.2 µM; with MOLT-4 leukemia, 2.05 µM; with RXF 393 renal, 1.74 µM; in the assay with OVCAR-3 ovarian it was 3.52 µM. Also, the GI50 was 2.12 µM with UACC-257 melanoma, 2.2 µM in the assay on HOP-62 NSCLC, 1.73 µM in the assay with SK-MEL-5 melanoma and 2.36 µM in the assay on SNB-19 CNS. For the same compound, the TGI turned out to be 3.48 µM in the assay on M14 melanoma; 4.6 µM in the assay with RPMI-8226 leukemia; 5.21 µM with DU-145 prostate; 4.92 µM with MOLT-4 leukemia; 3.39 µM in the assay with RXF 393 renal; 11.9 µM in the assay on OVCAR-3 ovarian. Also, the TGI was determined as 4.61 µM in the assay with UACC-257 melanoma, 5.89 µM in the assay with HOP-62 NSCLC, 3.11 µM in the assay on SK-MEL-5 melanoma and 5.3 µM in the assay with SNB-19 CNS.
Take `C#C[C@]1(O)CC[C@H]2[C@@H]3CC=C4c5nc(Nc6ccccn6)sc5CC[C@]4(C)[C@H]3CC[C@@]21C`: the GI50 in the assay with M14 melanoma is 1.14 µM; in the assay on RPMI-8226 leukemia, 0.182 µM; with DU-145 prostate, 2.16 µM; with MOLT-4 leukemia it was 0.344 µM; in the assay with RXF 393 renal it was 0.218 µM; with OVCAR-3 ovarian it was 1.43 µM. Besides, the GI50 was 0.778 µM in the assay with UACC-257 melanoma, 1.11 µM in the assay with HOP-62 NSCLC, 1.6 µM in the assay on SK-MEL-5 melanoma and 1.37 µM in the assay with SNB-19 CNS. The TGI is 3.21 µM with M14 melanoma; 0.602 µM in the assay on RPMI-8226 leukemia; 9.16 µM in the assay with DU-145 prostate; 1.7 µM with MOLT-4 leukemia; 0.468 µM with RXF 393 renal; 3.29 µM in the assay with OVCAR-3 ovarian. Also, the TGI in the assay with UACC-257 melanoma came to 2.55 µM; in the assay on HOP-62 NSCLC, 2.95 µM; with SK-MEL-5 melanoma, 2.98 µM; in the assay on SNB-19 CNS, 5.59 µM.
For `CON(C)C(=O)C(C)NC(=O)OCc1ccccc1` (stereo not given), the TGI in the assay with M14 melanoma, in the assay with RPMI-8226 leukemia, with DU-145 prostate, in the assay with MOLT-4 leukemia, in the assay with RXF 393 renal and in the assay with OVCAR-3 ovarian was greater than 100 µM in each case. Further, the TGI in the assay with UACC-257 melanoma, with HOP-62 NSCLC, in the assay with SK-MEL-5 melanoma and in the assay on SNB-19 CNS was greater than 100 µM each time.
Regarding `C=C1C(=O)O[C@@H]2C[C@@]3(C)CC(=O)C=C(C)[C@@H]3C[C@H]12`, the TGI in the assay with M14 melanoma was determined as 32.7 µM; in the assay on RPMI-8226 leukemia, 5.45 µM; with DU-145 prostate, 16.1 µM; in the assay with MOLT-4 leukemia, 21.8 µM; with RXF 393 renal it was 18.2 µM; in the assay with OVCAR-3 ovarian, 19.9 µM. Further, the TGI with UACC-257 melanoma is 41.7 µM; in the assay with HOP-62 NSCLC it was 34.4 µM; in the assay with SK-MEL-5 melanoma it was 22.9 µM; with SNB-19 CNS it was 50 µM.
For the compound `CCN(c1ccc(CO)c(Cl)c1)C(C)c1ccc(F)cc1` (stereo not given), the GI50 is 17.6 µM with M14 melanoma; 11.8 µM in the assay with RPMI-8226 leukemia; 16.9 µM in the assay on DU-145 prostate; 19.3 µM in the assay with MOLT-4 leukemia; 11 µM in the assay with RXF 393 renal; 13.7 µM in the assay on OVCAR-3 ovarian. For the same compound, the GI50 with UACC-257 melanoma is 2.8 µM; with HOP-62 NSCLC it was 16.2 µM; in the assay with SK-MEL-5 melanoma, 14.5 µM; in the assay with SNB-19 CNS, 16 µM. In addition, the TGI came to 33.8 µM in the assay on M14 melanoma; 39.2 µM with RPMI-8226 leukemia; 31.2 µM in the assay on DU-145 prostate; 40 µM with MOLT-4 leukemia; 26 µM in the assay with RXF 393 renal; 27.3 µM in the assay on OVCAR-3 ovarian. The TGI in the assay on UACC-257 melanoma stood at 12.8 µM; with HOP-62 NSCLC, 30.2 µM; with SK-MEL-5 melanoma it was 28 µM; in the assay with SNB-19 CNS, 30.5 µM.
`C[n+]1cc2c3c(ccc2c2ccc4cc5c(cc4c21)OCO5)OCO3`: the GI50 in the assay on M14 melanoma was 0.412 µM; with RPMI-8226 leukemia, 0.365 µM; in the assay on DU-145 prostate, 0.726 µM; in the assay with MOLT-4 leukemia it was 0.3 µM; with RXF 393 renal, 0.351 µM; in the assay on OVCAR-3 ovarian it was 0.278 µM. The GI50 is 1.18 µM with UACC-257 melanoma, 0.349 µM with HOP-62 NSCLC, 1.16 µM in the assay on SK-MEL-5 melanoma and 1.29 µM in the assay on SNB-19 CNS. For the same compound, the TGI in the assay on M14 melanoma was determined as 1.6 µM; in the assay on RPMI-8226 leukemia, 1.88 µM; in the assay with DU-145 prostate, 1.96 µM; in the assay with MOLT-4 leukemia, 0.697 µM; in the assay with RXF 393 renal, 1.32 µM; with OVCAR-3 ovarian, 0.758 µM. Besides, the TGI stood at 2.43 µM in the assay on UACC-257 melanoma, 1.44 µM with HOP-62 NSCLC, 2.39 µM in the assay with SK-MEL-5 melanoma and 2.72 µM with SNB-19 CNS.
For `COc1cc2cc(Oc3ccc(NC(=O)c4cccc(C(F)(F)F)c4)cc3)c(C)nc2cc1OC`, the GI50 with M14 melanoma is 4.02 µM; with RPMI-8226 leukemia, 3.67 µM; in the assay on DU-145 prostate it was 8.48 µM; in the assay on MOLT-4 leukemia it was 4.72 µM; with RXF 393 renal it was 6.07 µM; in the assay on OVCAR-3 ovarian, 3.96 µM. In addition, the GI50 was 5.41 µM in the assay on UACC-257 melanoma, 21.6 µM with HOP-62 NSCLC, 2.45 µM in the assay on SK-MEL-5 melanoma and 8.09 µM in the assay with SNB-19 CNS. In addition, the TGI with M14 melanoma was greater than 100 µM; with RPMI-8226 leukemia, greater than 100 µM; in the assay with DU-145 prostate, greater than 100 µM; in the assay on MOLT-4 leukemia it was greater than 100 µM; in the assay on RXF 393 renal, greater than 100 µM; with OVCAR-3 ovarian, 45.5 µM. The TGI in the assay with UACC-257 melanoma was greater than 100 µM; in the assay with HOP-62 NSCLC, greater than 100 µM; in the assay with SK-MEL-5 melanoma, 8.84 µM; in the assay on SNB-19 CNS, greater than 100 µM.
Turning to `Nc1cc2c3c(cccc3c1)NC2=O`, the TGI in the assay with M14 melanoma, in the assay on RPMI-8226 leukemia, with DU-145 prostate, in the assay with MOLT-4 leukemia, in the assay on RXF 393 renal and in the assay with OVCAR-3 ovarian was greater than 100 µM in each case. In addition, the TGI in the assay with UACC-257 melanoma, with HOP-62 NSCLC, in the assay with SK-MEL-5 melanoma and with SNB-19 CNS was greater than 100 µM in each case.
Turning to `CCc1nc(N)nc(N)c1-c1ccc([N+](=O)[O-])c(NCc2ccccc2)c1`, the TGI in the assay with M14 melanoma came to 39.9 µM; with RPMI-8226 leukemia, 32.2 µM; in the assay on DU-145 prostate, 31.5 µM; in the assay with MOLT-4 leukemia, 26.6 µM; in the assay on RXF 393 renal, 52.7 µM; in the assay with OVCAR-3 ovarian it was 36.6 µM. The TGI with UACC-257 melanoma amounted to 30.9 µM; in the assay on HOP-62 NSCLC, 28.9 µM; with SK-MEL-5 melanoma it was 22.9 µM; with SNB-19 CNS, 38.9 µM.
Turning to `CS(=O)(=O)c1ccc(Cl)c([N+](=O)[O-])c1`, the GI50 is 17 µM with M14 melanoma; 25.5 µM with RPMI-8226 leukemia; 13.3 µM in the assay on DU-145 prostate; 28.5 µM in the assay with MOLT-4 leukemia; 11.9 µM in the assay with RXF 393 renal; 17.8 µM with OVCAR-3 ovarian. The GI50 is 15.8 µM in the assay with UACC-257 melanoma, 15.8 µM with HOP-62 NSCLC, 13 µM in the assay with SK-MEL-5 melanoma and 12.5 µM in the assay with SNB-19 CNS. The TGI was 31.7 µM in the assay with M14 melanoma; 70 µM in the assay with RPMI-8226 leukemia; 26.4 µM with DU-145 prostate; 69.5 µM in the assay on MOLT-4 leukemia; 24.5 µM in the assay with RXF 393 renal; 32.5 µM in the assay with OVCAR-3 ovarian. Moreover, the TGI in the assay on UACC-257 melanoma worked out at 31.6 µM; in the assay on HOP-62 NSCLC, 29.5 µM; in the assay on SK-MEL-5 melanoma, 25.7 µM; with SNB-19 CNS, 25.5 µM.
